Assay results: patent US5627263A, “Integrin-binding peptides” (La Jolla Cancer Research Foundation, priority 1995, dated 1997)
Where a SMILES comes first, the peptide text is derived from it. Bridges are numbered along the chain shown (N, C = ends).

Assays:
α5 β1 integrin [1] = molecular target: α5 β1 integrin (Homo sapiens, UniProt P05556+P08648); assay: 125I-fibronectin binding assay, competing peptides; details: microtiter wells coated with α5 β1, 1 hr; FIG. 1; read-out: IC50, inhibition of 125I-fibronectin binding to α5 β1
Experimental: The α5 β1 integrin was bound to α5 specific antibody-coated wells by incubating 300 μl of a placental extract per well in TBS buffer containing 0.1M octylglucoside, 1 mM CaCl2, 1 mM MnCl2 and proteinase inhibitors overnight at 4° C., as described by Pytela et al. (1987), supra. Alternatively, the α5β1 integrin was directly coated on plastic as described above. The wells were extensively washed with TBS containing 0.1% NP-40. ^125 I-labeled fibronectin (100,000 cpm per well) was incubated in the presence of competing peptides for 1 hr at 25° C. in 100 μl volume of TBS containing 0.1% NP-40 and 1 mM MnCl2, as described by Koivunen et al. (1993), supra. After repeated washing, the bound radioactivity was quantitated with a gamma counter.
Initially, CRRETAWAC [SEQ ID NO:6] was examined for its ability to inhibit binding of fibronectin, which is the natural ligand for α5 β1. Briefly, ^125 I-fibronectin was incubated for 1 hr in the presence of competing peptides in microtiter wells coated with α5 β1. Following incubation, the wells were washed and bound radioactivity was determined with a gamma counter.

α5 β1 integrin [2] = molecular target: T1, α5 β1 integrin (UniProt G3HZ55+P08648); assay: Attachment of B2/α27 cells to immobilized GACRRETAWACGA peptide and its inhibition; type: cell-based, human; details: EDTA 10 mM; FIG. 8
T1 construct: expressed in transfected cells; host or cells: CHO B2/α27
Text: Cell lines expressing fibronectin-binding integrins were used to determine peptide activities against these integrins in the cell attachment assay described by Ruoslahti et al., Meth. Enzymol. 144:803-831 (1982), which is incorporated herein by reference. Human plasma fibronectin was iodinated as described by Morla and Ruoslahti, J. Cell Biol. 118:421-429 (1992), which is incorporated herein by reference. Vitronectin was obtained from Telios Pharmaceuticals (San Diego, Calif.). […] Peptide was coated on plastic by incubating at 37° C. for 2 hr in phosphate buffered saline containing 0.25% glutaraldehyde to crosslink the peptide. Free binding sites on the plastic were blocked using BSA. Approximately 1×10^5 cells per well were allowed to attach for 1 hr in the presence or absence of competing peptides. Bound cells were quantitated by staining with 0.1% amido black.
In addition to the inhibition of cell attachment to natural ligands, attachment and inhibition assays were performed using the […] [SEQ ID NO:3] peptide as substrate. The microtiter well were coated with […] [SEQ ID NO:3] using glutaraldehyde as described above. […] Bound cells were quantitated by staining with 0.1% amido black.

Row | IC50 (α5 β1 integrin [1]) [nM] | Inhibition of cell attachment to immobilized RRETAWA peptide by EDTA (α5 β1 integrin [2]) | SMILES
1 | ~8 | – | CC(C)C[C@H](NC(=O)[C@@H]1CSSC[C@H](NC(=O)[C@H](C)NC(=O)CN)C(=O)N[C@@H](CCCNC(=N)N)C(=O)NCC(=O)N[C@@H](CC(=O)O)C(=O)N1)C(=O)NCC(=O)N[C@@H](C)C(=O)O [CRGDC, GA*CRGDC*LGA] (H-GACRGDCLGA-OH; disulfide 3-7)
2 | ~8 | – | C[C@H](NC(=O)CNC(=O)[C@@H]1CSSC[C@H](NC(=O)[C@H](C)NC(=O)CN)C(=O)N[C@@H](CCCNC(=N)N)C(=O)N[C@@H](CCCNC(=N)N)C(=O)N[C@@H](CCC(=O)O)C(=O)N[C@@H]([C@@H](C)O)C(=O)N[C@@H](C)C(=O)N[C@@H](Cc2c[nH]c3ccccc23)C(=O)N[C@@H](C)C(=O)N1)C(=O)O [CRRETAWAC, GA*CRRETAWAC*GA] (H-GACRRETAWACGA-OH; disulfide 3-11)
3 | – | inhibited | O=C(O)CN(CCN(CC(=O)O)CC(=O)O)CC(=O)O [EDTA]
